Assay results published in US20160158240A1, “Compositions Containing Defined Caffeine and Theobromine Levels with Enhanced Cognitive Properties” (The Hershey Company, priority 2014, published 2016).

Experiments:
[1] = test system: subjects with a caffeine habit; assay: fMRI connectivity and brain blood flow analysis after test beverage; type: in vivo, human; conditions: subject that routinely ingests caffeine; brain regions consistent with caffeine cravings; FIG. 1 and FIG. 3
Excerpt: Measurement or detection of changes in the brain can be done using functional MRI (fMRI) and functional brain network analyses as known in the art. The following is an exemplary study using known techniques based upon fMRI scanning of human brains.
These examples represent an intervention study (number of subjects=24) with a randomized controlled, double-blind, placebo-controlled crossover design. The study is designed to ensure completion of all possibilities in the order of delivering the test samples, i.e. each subject is administered each of the possible test beverages in different order. […] For initial baseline testing, subjects undergo 16 hours of caffeine and chocolate withdrawal for a baseline testing and then participate in four separate brain scanning visits over 5-10 weeks. Study participants are ideally healthy adults 18-55 who consume moderate (200-500 mg) amounts of caffeine daily. […] As determined from a medical screening session, any subjects with active neurological dysfunction (such as a major Axis I psychopathology, Alzheimer's disease, Parkinson's disease, prior history of stroke, epilepsy, or serious CNS trauma, ADHD, migraines, hypertension, diabetes, peripheral vascular disease, or taking vasoactive medications, such as antihypertensive medications) are excluded from the study. […]

[2] = test system: brain blood flow; conditions: study using 6 participants; cited from earlier work

Cn1c(=O)c2c(ncn2C)n(C)c1=O [Caffeine, caffeine]
change in blood flow/connectivity by fMRI [1]: reduction in blood flow/connectivity | brain blood flow difference between caffeine and theobromine [2]: 5.03 ml/100 gm tissue/min
